The NIST ThermoML archive (doi:10.1021/acs.jced.8b01135)
± gives the expanded uncertainty stated by the source.

Assay: xn = mol fraction of the nth substance listed
Details: 102 kPa, Liquid; for speed of sound: Frequency=3 MHz, Single path-length method; for mass density: Vibrating tube method; for viscosity: Concentric cylinders viscometry

## CCCCCCCCC1CCCCC1 [octylcyclohexane] + CCCCCCCCCCCC
288.15 K, x1 = 0.1
  speed of sound: 1326.2 ± 0.8 m/s
  mass density: 759.33 ± 0.71 kg/m3
288.15 K, x1 = 0.1998
  speed of sound: 1335.1 ± 0.8 m/s
  mass density: 766.24 ± 0.71 kg/m3
288.15 K, x1 = 0.3002
  speed of sound: 1344.1 ± 0.9 m/s
  mass density: 772.95 ± 0.71 kg/m3
288.15 K, x1 = 0.3998
  speed of sound: 1353.1 ± 0.9 m/s
  mass density: 779.63 ± 0.71 kg/m3
288.15 K, x1 = 0.4948
  speed of sound: 1361.6 ± 0.9 m/s
  mass density: 785.9 ± 0.71 kg/m3
288.15 K, x1 = 0.5997
  speed of sound: 1370.8 ± 0.9 m/s
  mass density: 792.69 ± 0.71 kg/m3
288.15 K, x1 = 0.6996
  speed of sound: 1379.4 ± 0.9 m/s
  mass density: 798.98 ± 0.71 kg/m3
288.15 K, x1 = 0.7999
  speed of sound: 1388.2 ± 1 m/s
  mass density: 805.34 ± 0.72 kg/m3
288.15 K, x1 = 0.9
  speed of sound: 1396.9 ± 1 m/s
  mass density: 811.48 ± 0.72 kg/m3
288.15 K, x1 = 1
  speed of sound: 1405.5 ± 1 m/s
  mass density: 817.58 ± 0.72 kg/m3
293.15 K, x1 = 0.1
  viscosity: 1.61 ± 0.02 mPa·s
  speed of sound: 1306.9 ± 0.8 m/s
  mass density: 755.72 ± 0.71 kg/m3
293.15 K, x1 = 0.1998
  viscosity: 1.74 ± 0.02 mPa·s
  speed of sound: 1315.8 ± 0.8 m/s
  mass density: 762.65 ± 0.71 kg/m3
293.15 K, x1 = 0.3002
  viscosity: 1.91 ± 0.02 mPa·s
  speed of sound: 1324.8 ± 0.9 m/s
  mass density: 769.38 ± 0.71 kg/m3
293.15 K, x1 = 0.3998
  viscosity: 2.05 ± 0.02 mPa·s
  speed of sound: 1333.9 ± 0.9 m/s
  mass density: 776.08 ± 0.71 kg/m3
293.15 K, x1 = 0.4948
  viscosity: 2.23 ± 0.02 mPa·s
  speed of sound: 1342.3 ± 0.9 m/s
  mass density: 782.36 ± 0.71 kg/m3
293.15 K, x1 = 0.5997
  viscosity: 2.44 ± 0.02 mPa·s
  speed of sound: 1351.6 ± 0.9 m/s
  mass density: 789.17 ± 0.71 kg/m3
293.15 K, x1 = 0.6996
  viscosity: 2.66 ± 0.02 mPa·s
  speed of sound: 1360.3 ± 0.9 m/s
  mass density: 795.48 ± 0.71 kg/m3
293.15 K, x1 = 0.7999
  viscosity: 2.91 ± 0.03 mPa·s
  speed of sound: 1369.1 ± 1 m/s
  mass density: 801.86 ± 0.72 kg/m3
293.15 K, x1 = 0.9
  viscosity: 3.2 ± 0.03 mPa·s
  speed of sound: 1377.8 ± 1 m/s
  mass density: 808.01 ± 0.72 kg/m3
293.15 K, x1 = 1
  viscosity: 3.52 ± 0.03 mPa·s
  speed of sound: 1386.4 ± 1 m/s
  mass density: 814.13 ± 0.72 kg/m3
298.15 K, x1 = 0.1
  speed of sound: 1287.6 ± 0.8 m/s
  mass density: 752.11 ± 0.71 kg/m3
298.15 K, x1 = 0.1998
  speed of sound: 1296.5 ± 0.8 m/s
  mass density: 759.06 ± 0.71 kg/m3
298.15 K, x1 = 0.3002
  speed of sound: 1305.5 ± 0.9 m/s
  mass density: 765.81 ± 0.71 kg/m3
298.15 K, x1 = 0.3998
  speed of sound: 1314.8 ± 0.9 m/s
  mass density: 772.53 ± 0.71 kg/m3
298.15 K, x1 = 0.4948
  speed of sound: 1323.4 ± 0.9 m/s
  mass density: 778.83 ± 0.71 kg/m3
298.15 K, x1 = 0.5997
  speed of sound: 1332.6 ± 0.9 m/s
  mass density: 785.65 ± 0.71 kg/m3
298.15 K, x1 = 0.6996
  speed of sound: 1341.2 ± 0.9 m/s
  mass density: 791.98 ± 0.71 kg/m3
298.15 K, x1 = 0.7999
  speed of sound: 1350.2 ± 1 m/s
  mass density: 798.37 ± 0.72 kg/m3
298.15 K, x1 = 0.9
  speed of sound: 1358.7 ± 1 m/s
  mass density: 804.53 ± 0.72 kg/m3
298.15 K, x1 = 1
  speed of sound: 1367.4 ± 1 m/s
  mass density: 810.67 ± 0.72 kg/m3
303.15 K, x1 = 0.1
  viscosity: 1.36 ± 0.02 mPa·s
  speed of sound: 1268.4 ± 0.8 m/s
  mass density: 748.5 ± 0.71 kg/m3
303.15 K, x1 = 0.1998
  viscosity: 1.47 ± 0.02 mPa·s
  speed of sound: 1277.3 ± 0.8 m/s
  mass density: 755.45 ± 0.71 kg/m3
303.15 K, x1 = 0.3002
  viscosity: 1.6 ± 0.02 mPa·s
  speed of sound: 1286.4 ± 0.9 m/s
  mass density: 762.24 ± 0.71 kg/m3
303.15 K, x1 = 0.3998
  viscosity: 1.69 ± 0.02 mPa·s
  speed of sound: 1295.9 ± 0.9 m/s
  mass density: 768.97 ± 0.71 kg/m3
303.15 K, x1 = 0.4948
  viscosity: 1.82 ± 0.02 mPa·s
  speed of sound: 1304.4 ± 0.9 m/s
  mass density: 775.29 ± 0.71 kg/m3
303.15 K, x1 = 0.5997
  viscosity: 1.98 ± 0.02 mPa·s
  speed of sound: 1313.8 ± 0.9 m/s
  mass density: 782.13 ± 0.71 kg/m3
303.15 K, x1 = 0.6996
  viscosity: 2.15 ± 0.02 mPa·s
  speed of sound: 1322.2 ± 0.9 m/s
  mass density: 788.47 ± 0.72 kg/m3
303.15 K, x1 = 0.7999
  viscosity: 2.34 ± 0.02 mPa·s
  speed of sound: 1331.4 ± 1 m/s
  mass density: 794.88 ± 0.72 kg/m3
303.15 K, x1 = 0.9
  viscosity: 2.55 ± 0.02 mPa·s
  speed of sound: 1339.9 ± 1 m/s
  mass density: 801.06 ± 0.72 kg/m3
303.15 K, x1 = 1
  viscosity: 2.79 ± 0.03 mPa·s
  speed of sound: 1348.6 ± 1 m/s
  mass density: 807.2 ± 0.72 kg/m3
313.15 K, x1 = 0.1
  viscosity: 1.16 ± 0.02 mPa·s
  speed of sound: 1230.7 ± 0.8 m/s
  mass density: 741.26 ± 0.71 kg/m3
313.15 K, x1 = 0.1998
  viscosity: 1.24 ± 0.02 mPa·s
  speed of sound: 1239.6 ± 0.8 m/s
  mass density: 748.26 ± 0.71 kg/m3
313.15 K, x1 = 0.3002
  viscosity: 1.33 ± 0.02 mPa·s
  speed of sound: 1248.9 ± 0.9 m/s
  mass density: 755.08 ± 0.71 kg/m3
313.15 K, x1 = 0.3998
  viscosity: 1.43 ± 0.02 mPa·s
  speed of sound: 1258.6 ± 0.9 m/s
  mass density: 761.84 ± 0.71 kg/m3
313.15 K, x1 = 0.4948
  viscosity: 1.52 ± 0.02 mPa·s
  speed of sound: 1267.1 ± 0.9 m/s
  mass density: 768.19 ± 0.71 kg/m3
313.15 K, x1 = 0.5997
  viscosity: 1.64 ± 0.02 mPa·s
  speed of sound: 1276.7 ± 0.9 m/s
  mass density: 775.07 ± 0.72 kg/m3
313.15 K, x1 = 0.6996
  viscosity: 1.77 ± 0.02 mPa·s
  speed of sound: 1285.1 ± 0.9 m/s
  mass density: 781.45 ± 0.72 kg/m3
313.15 K, x1 = 0.7999
  viscosity: 1.92 ± 0.02 mPa·s
  speed of sound: 1294.4 ± 1 m/s
  mass density: 787.89 ± 0.72 kg/m3
313.15 K, x1 = 0.9
  viscosity: 2.08 ± 0.02 mPa·s
  speed of sound: 1302.8 ± 1 m/s
  mass density: 794.1 ± 0.72 kg/m3
313.15 K, x1 = 1
  viscosity: 2.26 ± 0.02 mPa·s
  speed of sound: 1311.6 ± 1 m/s
  mass density: 800.28 ± 0.72 kg/m3
323.15 K, x1 = 0.1
  viscosity: 1 ± 0.02 mPa·s
  speed of sound: 1193.7 ± 0.8 m/s
  mass density: 734 ± 0.71 kg/m3
323.15 K, x1 = 0.1998
  viscosity: 1.07 ± 0.02 mPa·s
  speed of sound: 1202.7 ± 0.8 m/s
  mass density: 741.03 ± 0.71 kg/m3
323.15 K, x1 = 0.3002
  viscosity: 1.14 ± 0.02 mPa·s
  speed of sound: 1212.2 ± 0.9 m/s
  mass density: 747.89 ± 0.71 kg/m3
323.15 K, x1 = 0.3998
  viscosity: 1.23 ± 0.02 mPa·s
  speed of sound: 1221.9 ± 0.9 m/s
  mass density: 754.69 ± 0.71 kg/m3
323.15 K, x1 = 0.4948
  viscosity: 1.31 ± 0.02 mPa·s
  speed of sound: 1230.5 ± 0.9 m/s
  mass density: 761.08 ± 0.72 kg/m3
323.15 K, x1 = 0.5997
  viscosity: 1.38 ± 0.02 mPa·s
  speed of sound: 1240.1 ± 0.9 m/s
  mass density: 768 ± 0.72 kg/m3
323.15 K, x1 = 0.6996
  viscosity: 1.48 ± 0.02 mPa·s
  speed of sound: 1248.7 ± 0.9 m/s
  mass density: 774.42 ± 0.72 kg/m3
323.15 K, x1 = 0.7999
  viscosity: 1.6 ± 0.02 mPa·s
  speed of sound: 1258.1 ± 1 m/s
  mass density: 780.88 ± 0.72 kg/m3
323.15 K, x1 = 0.9
  viscosity: 1.73 ± 0.02 mPa·s
  speed of sound: 1266.6 ± 1 m/s
  mass density: 787.14 ± 0.72 kg/m3
323.15 K, x1 = 1
  viscosity: 1.87 ± 0.02 mPa·s
  speed of sound: 1275.5 ± 1 m/s
  mass density: 793.35 ± 0.72 kg/m3
333.15 K, x1 = 0.1
  viscosity: 0.865 ± 0.021 mPa·s
  speed of sound: 1157.6 ± 0.8 m/s
  mass density: 726.7 ± 0.71 kg/m3
333.15 K, x1 = 0.1998
  viscosity: 0.923 ± 0.021 mPa·s
  speed of sound: 1166.9 ± 0.8 m/s
  mass density: 733.78 ± 0.71 kg/m3
333.15 K, x1 = 0.3002
  viscosity: 0.984 ± 0.021 mPa·s
  speed of sound: 1176.4 ± 0.9 m/s
  mass density: 740.68 ± 0.71 kg/m3
333.15 K, x1 = 0.3998
  viscosity: 1.06 ± 0.02 mPa·s
  speed of sound: 1186 ± 0.9 m/s
  mass density: 747.52 ± 0.72 kg/m3
333.15 K, x1 = 0.4948
  viscosity: 1.12 ± 0.02 mPa·s
  speed of sound: 1194.8 ± 0.9 m/s
  mass density: 753.94 ± 0.72 kg/m3
333.15 K, x1 = 0.5997
  viscosity: 1.18 ± 0.02 mPa·s
  speed of sound: 1204.5 ± 0.9 m/s
  mass density: 760.9 ± 0.72 kg/m3
333.15 K, x1 = 0.6996
  viscosity: 1.26 ± 0.02 mPa·s
  speed of sound: 1213.3 ± 0.9 m/s
  mass density: 767.37 ± 0.72 kg/m3
333.15 K, x1 = 0.7999
  viscosity: 1.36 ± 0.02 mPa·s
  speed of sound: 1222.7 ± 1 m/s
  mass density: 773.86 ± 0.72 kg/m3
333.15 K, x1 = 0.9
  viscosity: 1.46 ± 0.02 mPa·s
  speed of sound: 1231.5 ± 1 m/s
  mass density: 780.16 ± 0.72 kg/m3
333.15 K, x1 = 1
  viscosity: 1.57 ± 0.02 mPa·s
  speed of sound: 1240.3 ± 1 m/s
  mass density: 786.41 ± 0.72 kg/m3
